Measurements taken from patent US8969516B2, “Method of hydrolysis of peptide bond” (priority 2006, dated 2015).

Assay: MALDI-TOF screening of Ni^2+ dependent hydrolysis in a combinatorial peptide library
Type: physicochemical
Settings: Ni^2+ 2 mM, pH 8.2, 10 mM Tris, score=24/tm
In short: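 The screen used 1 mM peptide mixtures in 10 mM Tris, pH 8.2, with 2 mM Ni2+ at two temperatures, 37 °C and 45 °C. Product appearance and substrate decline were monitored visually by MALDI-TOF over 8 h. Scores for X and Z were then summed by row and column to rank substitutions.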

[1] = CH3CO-Gly-Ala-Thr-X-His-Z-Lys-Phe-Leu-NH2 library, 37° C.
[2] = CH3CO-Gly-Ala-Thr-X-His-Z-Lys-Phe-Leu-NH2 library, 45° C.
[3] = CH3CO-Gly-Ala-Ser-X-His-Z-Lys-Phe-Leu-NH2 library, 37° C.
[4] = CH3CO-Gly-Ala-Ser-X-His-Z-Lys-Phe-Leu-NH2 library, 45° C.

Ac-GATFHPKFL-NH2 [TFHP]
hydrolysis score from MALDI-TOF screening [1]: 0 (a score of 0 if no trace of the product of hydrolysis was seen after 8 hours of incubation) | hydrolysis score from MALDI-TOF screening [2]: 0 (a score of 0 if no trace of the product of hydrolysis was seen after 8 hours of incubation)

Ac-GATFHTKFL-NH2 [TFHT]
hydrolysis score from MALDI-TOF screening [1]: 0 (a score of 0 if no trace of the product of hydrolysis was seen after 8 hours of incubation) | hydrolysis score from MALDI-TOF screening [2]: 0 (a score of 0 if no trace of the product of hydrolysis was seen after 8 hours of incubation)

Ac-GATAHQKFL-NH2 [TAHQ]
hydrolysis score from MALDI-TOF screening [1]: 0 (a score of 0 if no trace of the product of hydrolysis was seen after 8 hours of incubation) | hydrolysis score from MALDI-TOF screening [2]: 0 (a score of 0 if no trace of the product of hydrolysis was seen after 8 hours of incubation)

Ac-GASVHPKFL-NH2 [SVHP]
hydrolysis score from MALDI-TOF screening [3]: 0 (a score of 0 if no trace of the product of hydrolysis was seen after 8 hours of incubation) | hydrolysis score from MALDI-TOF screening [4]: 0 (a score of 0 if no trace of the product of hydrolysis was seen after 8 hours of incubation)

Ac-GASQHTKFL-NH2 [SQHT]
hydrolysis score from MALDI-TOF screening [3]: 0 (a score of 0 if no trace of the product of hydrolysis was seen after 8 hours of incubation) | hydrolysis score from MALDI-TOF screening [4]: 0 (a score of 0 if no trace of the product of hydrolysis was seen after 8 hours of incubation)

Ac-GATSHVKFL-NH2 [TSHV]
hydrolysis score from MALDI-TOF screening [1]: 0 (a score of 0 if no trace of the product of hydrolysis was seen after 8 hours of incubation) | hydrolysis score from MALDI-TOF screening [2]: 0 (a score of 0 if no trace of the product of hydrolysis was seen after 8 hours of incubation)

Ac-GATPHKKFL-NH2 [TPHK]
hydrolysis score from MALDI-TOF screening [2]: 0 (a score of 0 if no trace of the product of hydrolysis was seen after 8 hours of incubation)

Ac-GASGHTKFL-NH2 [SGHT]
hydrolysis score from MALDI-TOF screening [3]: 0 (a score of 0 if no trace of the product of hydrolysis was seen after 8 hours of incubation) | hydrolysis score from MALDI-TOF screening [4]: 0 (a score of 0 if no trace of the product of hydrolysis was seen after 8 hours of incubation)

Ac-GASMHFKFL-NH2 [SMHF]
hydrolysis score from MALDI-TOF screening [3]: 3 (a score of 3 for detection at 8 hours) | hydrolysis score from MALDI-TOF screening [4]: 4 (a score of 4 for detection at 6 hours)

Ac-GATQHNKFL-NH2 [TQHN]
hydrolysis score from MALDI-TOF screening [1]: 0 (a score of 0 if no trace of the product of hydrolysis was seen after 8 hours of incubation) | hydrolysis score from MALDI-TOF screening [2]: 0 (a score of 0 if no trace of the product of hydrolysis was seen after 8 hours of incubation)

Ac-GASLHAKFL-NH2 [SLHA]
hydrolysis score from MALDI-TOF screening [3]: 0 (a score of 0 if no trace of the product of hydrolysis was seen after 8 hours of incubation) | hydrolysis score from MALDI-TOF screening [4]: 0 (a score of 0 if no trace of the product of hydrolysis was seen after 8 hours of incubation)

Ac-GASTHWKFL-NH2 [STHW]
hydrolysis score from MALDI-TOF screening [3]: 4 (a score of 4 for detection at 6 hours) | hydrolysis score from MALDI-TOF screening [4]: 6 (a score of 6 for detection at 4 hours)

Ac-GASMHLKFL-NH2 [SMHL]
hydrolysis score from MALDI-TOF screening [3]: 4 (a score of 4 for detection at 6 hours) | hydrolysis score from MALDI-TOF screening [4]: 12 (a score of 12, if it was seen to be partially hydrolysed at 2 hours)

Ac-GATSHQKFL-NH2 [TSHQ]
hydrolysis score from MALDI-TOF screening [1]: 0 (a score of 0 if no trace of the product of hydrolysis was seen after 8 hours of incubation) | hydrolysis score from MALDI-TOF screening [2]: 0 (a score of 0 if no trace of the product of hydrolysis was seen after 8 hours of incubation)

Ac-GATRHKKFL-NH2 [TRHK]
hydrolysis score from MALDI-TOF screening [1]: 6 (a score of 6 for detection at 4 hours) | hydrolysis score from MALDI-TOF screening [2]: 12 (a score of 12, if it was seen to be partially hydrolysed at 2 hours)

Ac-GATKHQKFL-NH2 [TKHQ]
hydrolysis score from MALDI-TOF screening [1]: 0 (a score of 0 if no trace of the product of hydrolysis was seen after 8 hours of incubation) | hydrolysis score from MALDI-TOF screening [2]: 0 (a score of 0 if no trace of the product of hydrolysis was seen after 8 hours of incubation)

Ac-GASAHDKFL-NH2 [SAHD]
hydrolysis score from MALDI-TOF screening [3]: 0 (a score of 0 if no trace of the product of hydrolysis was seen after 8 hours of incubation) | hydrolysis score from MALDI-TOF screening [4]: 0 (a score of 0 if no trace of the product of hydrolysis was seen after 8 hours of incubation)

Ac-GATYHMKFL-NH2 [TYHM]
hydrolysis score from MALDI-TOF screening [1]: 0 (a score of 0 if no trace of the product of hydrolysis was seen after 8 hours of incubation) | hydrolysis score from MALDI-TOF screening [2]: 0 (a score of 0 if no trace of the product of hydrolysis was seen after 8 hours of incubation)

Ac-GASYHWKFL-NH2 [SYHW]
hydrolysis score from MALDI-TOF screening [3]: 6 (a score of 6 for detection at 4 hours) | hydrolysis score from MALDI-TOF screening [4]: 6 (a score of 6 for detection at 4 hours)

Ac-GASFHWKFL-NH2 [SFHW]
hydrolysis score from MALDI-TOF screening [3]: 4 (a score of 4 for detection at 6 hours) | hydrolysis score from MALDI-TOF screening [4]: 6 (a score of 6 for detection at 4 hours)

Ac-GASTHLKFL-NH2 [STHL]
hydrolysis score from MALDI-TOF screening [3]: 4 (a score of 4 for detection at 6 hours) | hydrolysis score from MALDI-TOF screening [4]: 6 (a score of 6 for detection at 4 hours)

Ac-GATYHRKFL-NH2 [TYHR]
hydrolysis score from MALDI-TOF screening [1]: 4 (a score of 4 for detection at 6 hours) | hydrolysis score from MALDI-TOF screening [2]: 4 (a score of 4 for detection at 6 hours)

Ac-GATNHAKFL-NH2 [TNHA]
hydrolysis score from MALDI-TOF screening [1]: 0 (a score of 0 if no trace of the product of hydrolysis was seen after 8 hours of incubation) | hydrolysis score from MALDI-TOF screening [2]: 0 (a score of 0 if no trace of the product of hydrolysis was seen after 8 hours of incubation)

Ac-GATLHQKFL-NH2 [TLHQ]
hydrolysis score from MALDI-TOF screening [1]: 0 (a score of 0 if no trace of the product of hydrolysis was seen after 8 hours of incubation) | hydrolysis score from MALDI-TOF screening [2]: 0 (a score of 0 if no trace of the product of hydrolysis was seen after 8 hours of incubation)

Ac-GATKHYKFL-NH2 [TKHY]
hydrolysis score from MALDI-TOF screening [1]: 3 (a score of 3 for detection at 8 hours) | hydrolysis score from MALDI-TOF screening [2]: 6 (a score of 6 for detection at 4 hours)

Ac-GATMHKKFL-NH2 [TMHK]
hydrolysis score from MALDI-TOF screening [1]: 0 (a score of 0 if no trace of the product of hydrolysis was seen after 8 hours of incubation) | hydrolysis score from MALDI-TOF screening [2]: 3 (a score of 3 for detection at 8 hours)

Ac-GASGHHKFL-NH2 [SGHH]
hydrolysis score from MALDI-TOF screening [3]: 0 (a score of 0 if no trace of the product of hydrolysis was seen after 8 hours of incubation) | hydrolysis score from MALDI-TOF screening [4]: 0 (a score of 0 if no trace of the product of hydrolysis was seen after 8 hours of incubation)

Ac-GASYHAKFL-NH2 [SYHA]
hydrolysis score from MALDI-TOF screening [3]: 0 (a score of 0 if no trace of the product of hydrolysis was seen after 8 hours of incubation) | hydrolysis score from MALDI-TOF screening [4]: 0 (a score of 0 if no trace of the product of hydrolysis was seen after 8 hours of incubation)

Ac-GASHHFKFL-NH2 [SHHF]
hydrolysis score from MALDI-TOF screening [3]: 3 (a score of 3 for detection at 8 hours) | hydrolysis score from MALDI-TOF screening [4]: 3 (a score of 3 for detection at 8 hours)

Ac-GATQHHKFL-NH2 [TQHH]
hydrolysis score from MALDI-TOF screening [1]: 0 (a score of 0 if no trace of the product of hydrolysis was seen after 8 hours of incubation) | hydrolysis score from MALDI-TOF screening [2]: 0 (a score of 0 if no trace of the product of hydrolysis was seen after 8 hours of incubation)

Ac-GASRHIKFL-NH2 [SRHI]
hydrolysis score from MALDI-TOF screening [3]: 12 (a score of 12, if it was seen to be partially hydrolysed at 2 hours) | hydrolysis score from MALDI-TOF screening [4]: 12 (a score of 12, if it was seen to be partially hydrolysed at 2 hours)

Ac-GASNHWKFL-NH2 [SNHW]
hydrolysis score from MALDI-TOF screening [3]: 6 (a score of 6 for detection at 4 hours) | hydrolysis score from MALDI-TOF screening [4]: 6 (a score of 6 for detection at 4 hours)

Ac-GATTHYKFL-NH2 [TTHY]
hydrolysis score from MALDI-TOF screening [1]: 0 (a score of 0 if no trace of the product of hydrolysis was seen after 8 hours of incubation) | hydrolysis score from MALDI-TOF screening [2]: 0 (a score of 0 if no trace of the product of hydrolysis was seen after 8 hours of incubation)

Ac-GATFHMKFL-NH2 [TFHM]
hydrolysis score from MALDI-TOF screening [1]: 0 (a score of 0 if no trace of the product of hydrolysis was seen after 8 hours of incubation) | hydrolysis score from MALDI-TOF screening [2]: 0 (a score of 0 if no trace of the product of hydrolysis was seen after 8 hours of incubation)

Ac-GASLHNKFL-NH2 [SLHN]
hydrolysis score from MALDI-TOF screening [3]: 0 (a score of 0 if no trace of the product of hydrolysis was seen after 8 hours of incubation) | hydrolysis score from MALDI-TOF screening [4]: 0 (a score of 0 if no trace of the product of hydrolysis was seen after 8 hours of incubation)

Ac-GASVHFKFL-NH2 [SVHF]
hydrolysis score from MALDI-TOF screening [3]: 0 (a score of 0 if no trace of the product of hydrolysis was seen after 8 hours of incubation) | hydrolysis score from MALDI-TOF screening [4]: 3 (a score of 3 for detection at 8 hours)
